Here are results for one sequence from patent US20250011404A1, “TARGETING APOE ENHANCES T-CELL KILLING IN CANCER IMMUNOTHERAPY” (Children's National Medical Center, priority 2021, published 2025).

In this data set the test system is mouse apoE gene. The data set is described as follows: gRNA screening by next generation sequencing for INDEL frequency in B16-F10 cells. It is filed as cell-based. Particulars: RNP electroporated into B16-F10 cells; NGS. On the procedure: Six guide RNAs (gRNAs) were designed using IDT's gRNA design tool, targeting the mouse apoE gene. gRNAs were synthesized as 2-part crRNA: tracrRNA gRNAs with chemical modifications (Integrated DNA Technologies, Inc., IA) and were functionally screened by next generation sequencing (NGS) for high INDEL (insertion/deletion) frequency and low in-frame INDEL rates. gRNAs were prepared by complexing a 1:1 molar ratio of the crRNA: tracrRNA at a final concentration of 100 μM, heating to 95° C. and slowly cooling to room temperature. […]
The electroporated cells were plated in 1 well of a 6-well plate and allowed to grow until confluent. The cells were then dissociated by trypsinization, resuspended in media, and counted. […] The genomic DNA from each well was subject to quantification of total editing and analysis of INDEL profile by NGS to confirm a monoclonal isolate.
Genomic DNA libraries for sequencing were prepared using IDT rhAmpSeq targeted amplification. […] Libraries were purified using Agencourt® AMPure® XP system (Beckman Coulter, Brea, CA, USA) with a 1:1 ratio of beads to reaction by volume and quantified with quantitative real-time PCR (qPCR) before loading onto the Illumina® MiSeq platform (Illumina, San Diego, CA, USA). Paired end 150 base pair reads were sequenced using V2 chemistry. A sequencing depth of at least 1000 reads was obtained for each sample. […]

In the case of “GGACACTATGACGGAAGTAA (listed as DNA, chemistry not given here) [Mm. Cas9.APOE.1-E]”, the INDEL frequency was 99% and the “in-frame INDELs” value is on record as “no”.
